Laboratory results: PMC5762315, “Inhibition of polo-like kinase 4 (PLK4): a new therapeutic option for rhabdoid tumors and pediatric medulloblastoma” (Oncotarget, 2017)
Several values for one entry are separate records, joined by “and”; a condition that tells them apart may be missing. Equal values may be shown once.

Assays:
Assay in all cases: biochemical
Format in all cases: biochemical
[1] = target: T1, various kinases (Homo sapiens, UniProt Q15139); details: kinase PRKD1 (PKC mu); ZLYTE
T1 sequence (Q15139 1-912): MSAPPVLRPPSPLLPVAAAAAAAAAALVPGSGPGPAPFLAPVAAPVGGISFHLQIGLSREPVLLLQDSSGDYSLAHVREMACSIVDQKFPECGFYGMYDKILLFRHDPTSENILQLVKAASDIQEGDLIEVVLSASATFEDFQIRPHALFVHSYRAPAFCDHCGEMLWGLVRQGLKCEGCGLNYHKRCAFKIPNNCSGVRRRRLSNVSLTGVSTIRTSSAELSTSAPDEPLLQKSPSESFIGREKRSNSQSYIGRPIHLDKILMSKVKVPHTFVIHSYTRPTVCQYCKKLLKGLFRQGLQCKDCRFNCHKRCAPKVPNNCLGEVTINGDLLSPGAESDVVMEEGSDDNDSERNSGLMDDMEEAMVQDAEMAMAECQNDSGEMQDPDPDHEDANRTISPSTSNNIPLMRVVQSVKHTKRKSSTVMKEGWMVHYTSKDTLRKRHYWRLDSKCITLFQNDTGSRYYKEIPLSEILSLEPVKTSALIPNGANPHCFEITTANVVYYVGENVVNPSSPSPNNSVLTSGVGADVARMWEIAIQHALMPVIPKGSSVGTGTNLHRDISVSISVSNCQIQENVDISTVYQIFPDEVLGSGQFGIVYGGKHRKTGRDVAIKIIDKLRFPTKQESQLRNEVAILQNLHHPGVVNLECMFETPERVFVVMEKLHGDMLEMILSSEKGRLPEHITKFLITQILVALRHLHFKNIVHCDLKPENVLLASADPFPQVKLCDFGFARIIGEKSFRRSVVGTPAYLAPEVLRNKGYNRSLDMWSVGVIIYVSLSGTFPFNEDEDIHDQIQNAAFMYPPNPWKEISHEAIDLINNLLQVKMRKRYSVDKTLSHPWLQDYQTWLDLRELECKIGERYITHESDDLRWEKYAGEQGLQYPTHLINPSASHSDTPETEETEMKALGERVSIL

[2] = target: various kinases (Homo sapiens, UniProt P49674, R178C); details: CSNK1E (CK1 epsilon) R178C
[3] = target: various kinases (Homo sapiens, UniProt P53350); details: kinase PLK1; ZLYTE
[4] = target: various kinases (Homo sapiens, UniProt Q9NYY3); details: kinase PLK2; ZLYTE
[5] = target: various kinases (Homo sapiens, UniProt P31751); details: AKT2 (PKB beta)
[6] = target: various kinases (Homo sapiens, UniProt O96017); details: CHEK2 (CHK2)
[7] = target: various kinases (Homo sapiens, UniProt P05771); details: kinase PRKCB1 (PKC beta I); ZLYTE
[8] = target: various kinases (Homo sapiens, UniProt Q6DT37); details: CDC42 BPG (MRCKG)
[9] = target: various kinases (Homo sapiens, UniProt Q8N568); details: DCAMKL2 (DCK2)
[10] = target: various kinases (Homo sapiens, UniProt P29323); details: EPHB2
[11] = target: various kinases (Homo sapiens, UniProt P54646)
[12] = target: various kinases (Homo sapiens, UniProt P15735); details: PHKG2
[13] = target: various kinases (Homo sapiens, UniProt P04049, Y340D/Y341D); details: kinase RAF1 (cRAF) Y340D Y341D; ZLYTE
[14] = target: various kinases (Homo sapiens, UniProt P51812); details: kinase RPS6KA3 (RSK2); ZLYTE
[15] = target: various kinases (Homo sapiens, UniProt P11309); details: PIM1
[16] = target: various kinases (Homo sapiens, UniProt O96013); details: PAK4
[17] = target: various kinases (Homo sapiens, UniProt P07947); details: kinase YES1; ZLYTE
[18] = target: various kinases (Homo sapiens, UniProt P51813); details: BMX
[19] = target: various kinases (Homo sapiens, UniProt Q13464); details: kinase ROCK1; ZLYTE
[20] = target: various kinases (Homo sapiens, UniProt Q9P1W9); details: PIM2
[21] = target: various kinases (Homo sapiens, UniProt Q8IY84); details: NIM1K
[22] = target: various kinases (Homo sapiens, UniProt P00533, G719C); details: EGFR (ErbB1) G719C
[23] = target: various kinases (Homo sapiens, UniProt Q9P286); details: PAK7 (KIAA1264)
[24] = target: various kinases (Homo sapiens, UniProt P48729); details: CSNK1A1 (CK1 alpha 1)
[25] = target: various kinases (Homo sapiens, UniProt Q7KZI7); details: MARK2
For % Inhibition Average in this document: test concentration or dose not given here.
For % Inhibition Duplicate #1 in this document: test concentration or dose not given here.
For % Inhibition Duplicate #2 in this document: test concentration or dose not given here.

various kinases (Homo sapiens, UniProt Q13464), sequence (Q13464 whole entry): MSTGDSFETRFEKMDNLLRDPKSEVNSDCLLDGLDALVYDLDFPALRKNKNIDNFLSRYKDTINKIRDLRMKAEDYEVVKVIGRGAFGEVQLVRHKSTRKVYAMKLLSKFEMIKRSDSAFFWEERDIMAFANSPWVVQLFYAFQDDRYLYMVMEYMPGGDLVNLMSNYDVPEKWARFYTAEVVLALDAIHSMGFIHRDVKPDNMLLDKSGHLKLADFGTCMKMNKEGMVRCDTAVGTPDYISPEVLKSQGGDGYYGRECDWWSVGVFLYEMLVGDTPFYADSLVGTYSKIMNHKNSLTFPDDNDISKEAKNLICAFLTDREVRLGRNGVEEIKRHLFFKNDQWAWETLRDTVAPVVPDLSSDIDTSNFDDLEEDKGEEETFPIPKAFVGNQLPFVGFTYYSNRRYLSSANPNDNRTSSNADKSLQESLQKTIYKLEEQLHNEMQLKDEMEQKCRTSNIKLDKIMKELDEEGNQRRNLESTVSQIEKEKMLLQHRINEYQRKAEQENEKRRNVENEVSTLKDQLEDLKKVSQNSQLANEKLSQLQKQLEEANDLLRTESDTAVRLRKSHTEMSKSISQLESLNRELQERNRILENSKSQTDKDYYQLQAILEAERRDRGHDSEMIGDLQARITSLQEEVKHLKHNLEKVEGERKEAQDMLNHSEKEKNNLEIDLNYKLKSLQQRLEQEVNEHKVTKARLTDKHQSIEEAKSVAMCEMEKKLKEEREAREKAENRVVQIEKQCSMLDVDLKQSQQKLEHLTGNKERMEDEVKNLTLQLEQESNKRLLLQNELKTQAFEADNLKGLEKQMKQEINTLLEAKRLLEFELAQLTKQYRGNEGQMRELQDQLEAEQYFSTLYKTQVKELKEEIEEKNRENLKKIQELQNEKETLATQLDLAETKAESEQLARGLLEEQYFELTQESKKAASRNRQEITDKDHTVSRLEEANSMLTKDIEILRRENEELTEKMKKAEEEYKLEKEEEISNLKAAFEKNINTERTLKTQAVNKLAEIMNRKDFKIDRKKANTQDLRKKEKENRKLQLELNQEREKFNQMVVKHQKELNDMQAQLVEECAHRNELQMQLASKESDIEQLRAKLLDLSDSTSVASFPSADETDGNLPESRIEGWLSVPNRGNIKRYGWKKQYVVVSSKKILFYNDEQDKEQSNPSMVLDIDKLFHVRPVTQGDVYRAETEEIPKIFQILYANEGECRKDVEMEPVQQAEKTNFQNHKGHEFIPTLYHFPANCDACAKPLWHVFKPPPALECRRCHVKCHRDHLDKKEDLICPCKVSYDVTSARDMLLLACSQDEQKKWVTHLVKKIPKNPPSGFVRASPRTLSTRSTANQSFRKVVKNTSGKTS
various kinases (Homo sapiens, UniProt P54646), sequence (P54646 whole entry): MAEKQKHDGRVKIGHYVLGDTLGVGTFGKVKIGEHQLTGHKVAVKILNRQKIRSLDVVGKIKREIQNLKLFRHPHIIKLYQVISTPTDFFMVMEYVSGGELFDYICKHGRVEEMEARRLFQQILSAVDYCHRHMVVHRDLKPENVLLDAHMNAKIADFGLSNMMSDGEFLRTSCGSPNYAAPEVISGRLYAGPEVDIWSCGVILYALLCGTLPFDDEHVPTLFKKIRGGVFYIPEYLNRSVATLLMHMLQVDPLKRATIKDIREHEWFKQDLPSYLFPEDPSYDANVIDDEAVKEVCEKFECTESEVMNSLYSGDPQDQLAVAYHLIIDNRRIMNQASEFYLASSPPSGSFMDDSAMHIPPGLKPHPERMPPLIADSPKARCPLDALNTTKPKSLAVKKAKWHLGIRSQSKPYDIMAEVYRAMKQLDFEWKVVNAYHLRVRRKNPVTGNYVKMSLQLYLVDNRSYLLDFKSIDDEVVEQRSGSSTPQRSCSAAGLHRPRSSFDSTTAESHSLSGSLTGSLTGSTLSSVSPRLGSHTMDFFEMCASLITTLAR
various kinases (Homo sapiens, UniProt P05771), sequence (P05771 whole entry): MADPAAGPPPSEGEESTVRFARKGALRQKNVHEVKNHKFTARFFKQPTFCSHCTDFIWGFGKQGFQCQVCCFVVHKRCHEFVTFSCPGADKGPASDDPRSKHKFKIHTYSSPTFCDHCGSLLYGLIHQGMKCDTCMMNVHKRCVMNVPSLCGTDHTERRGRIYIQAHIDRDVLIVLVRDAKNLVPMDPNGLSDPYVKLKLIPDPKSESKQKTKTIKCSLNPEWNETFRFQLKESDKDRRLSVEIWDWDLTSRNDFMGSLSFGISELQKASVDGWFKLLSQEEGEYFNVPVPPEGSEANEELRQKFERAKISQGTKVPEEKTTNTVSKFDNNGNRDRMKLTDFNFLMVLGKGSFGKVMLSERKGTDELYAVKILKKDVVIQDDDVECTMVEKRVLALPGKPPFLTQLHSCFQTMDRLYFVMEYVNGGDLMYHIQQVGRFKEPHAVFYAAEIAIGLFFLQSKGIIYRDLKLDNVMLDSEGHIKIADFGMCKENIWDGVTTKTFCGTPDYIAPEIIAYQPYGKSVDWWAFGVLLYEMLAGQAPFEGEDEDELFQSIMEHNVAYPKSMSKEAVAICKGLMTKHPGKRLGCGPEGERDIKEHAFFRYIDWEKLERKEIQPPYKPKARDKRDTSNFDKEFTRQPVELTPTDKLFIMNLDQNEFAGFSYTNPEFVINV
various kinases (Homo sapiens, UniProt Q9NYY3), sequence (Q9NYY3 whole entry): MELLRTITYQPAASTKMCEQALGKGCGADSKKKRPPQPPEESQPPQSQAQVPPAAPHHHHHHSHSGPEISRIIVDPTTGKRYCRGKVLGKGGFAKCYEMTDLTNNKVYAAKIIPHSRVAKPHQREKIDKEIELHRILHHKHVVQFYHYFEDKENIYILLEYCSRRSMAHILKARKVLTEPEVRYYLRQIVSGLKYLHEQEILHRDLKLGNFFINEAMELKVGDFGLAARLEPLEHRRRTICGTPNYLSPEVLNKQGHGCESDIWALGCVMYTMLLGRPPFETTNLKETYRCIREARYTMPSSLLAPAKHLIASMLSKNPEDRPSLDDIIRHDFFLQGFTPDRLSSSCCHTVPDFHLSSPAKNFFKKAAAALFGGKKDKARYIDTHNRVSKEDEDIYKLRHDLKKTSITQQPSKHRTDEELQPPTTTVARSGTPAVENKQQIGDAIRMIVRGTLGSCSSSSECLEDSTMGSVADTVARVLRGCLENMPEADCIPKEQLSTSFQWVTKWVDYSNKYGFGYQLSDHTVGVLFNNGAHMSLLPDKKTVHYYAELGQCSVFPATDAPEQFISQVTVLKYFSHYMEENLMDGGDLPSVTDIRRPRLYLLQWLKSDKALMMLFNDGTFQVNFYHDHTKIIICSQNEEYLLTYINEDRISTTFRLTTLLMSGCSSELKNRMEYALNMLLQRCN
various kinases (Homo sapiens, UniProt P51812), sequence (P51812 whole entry): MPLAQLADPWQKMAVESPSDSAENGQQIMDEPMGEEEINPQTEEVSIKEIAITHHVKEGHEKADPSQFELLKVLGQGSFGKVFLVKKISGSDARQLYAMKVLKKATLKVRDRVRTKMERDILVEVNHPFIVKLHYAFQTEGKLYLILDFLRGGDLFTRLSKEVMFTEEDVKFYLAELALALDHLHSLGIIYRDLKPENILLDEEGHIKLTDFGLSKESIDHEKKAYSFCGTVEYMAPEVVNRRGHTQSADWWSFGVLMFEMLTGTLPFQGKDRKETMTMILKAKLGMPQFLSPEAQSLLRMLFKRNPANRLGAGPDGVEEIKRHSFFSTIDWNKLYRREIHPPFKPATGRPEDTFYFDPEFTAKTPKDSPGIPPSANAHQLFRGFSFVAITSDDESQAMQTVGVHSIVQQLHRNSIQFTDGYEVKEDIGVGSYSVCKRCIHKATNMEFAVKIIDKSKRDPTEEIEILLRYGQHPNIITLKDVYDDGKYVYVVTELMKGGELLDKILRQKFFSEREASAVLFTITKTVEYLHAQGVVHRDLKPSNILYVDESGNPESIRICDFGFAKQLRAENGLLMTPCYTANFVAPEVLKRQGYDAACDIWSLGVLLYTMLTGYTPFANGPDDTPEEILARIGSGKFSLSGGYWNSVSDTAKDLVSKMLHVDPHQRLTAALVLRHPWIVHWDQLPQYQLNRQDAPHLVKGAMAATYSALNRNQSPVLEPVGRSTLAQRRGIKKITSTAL
various kinases (Homo sapiens, UniProt P07947), sequence (P07947 whole entry): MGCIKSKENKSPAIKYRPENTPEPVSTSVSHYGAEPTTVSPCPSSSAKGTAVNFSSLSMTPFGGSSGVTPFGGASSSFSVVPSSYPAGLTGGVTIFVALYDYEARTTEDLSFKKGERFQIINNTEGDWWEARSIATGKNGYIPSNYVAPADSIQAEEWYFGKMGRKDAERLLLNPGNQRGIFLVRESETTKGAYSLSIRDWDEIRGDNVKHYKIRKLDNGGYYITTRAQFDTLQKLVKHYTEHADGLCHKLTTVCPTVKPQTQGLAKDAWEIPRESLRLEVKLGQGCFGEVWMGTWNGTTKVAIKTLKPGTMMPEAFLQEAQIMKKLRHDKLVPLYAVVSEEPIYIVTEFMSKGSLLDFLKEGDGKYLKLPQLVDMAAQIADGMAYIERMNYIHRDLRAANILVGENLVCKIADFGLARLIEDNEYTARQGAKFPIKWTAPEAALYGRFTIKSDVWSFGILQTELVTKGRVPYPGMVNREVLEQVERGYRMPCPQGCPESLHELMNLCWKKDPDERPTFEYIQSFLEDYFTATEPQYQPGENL
various kinases (Homo sapiens, UniProt P15735), sequence (P15735 whole entry): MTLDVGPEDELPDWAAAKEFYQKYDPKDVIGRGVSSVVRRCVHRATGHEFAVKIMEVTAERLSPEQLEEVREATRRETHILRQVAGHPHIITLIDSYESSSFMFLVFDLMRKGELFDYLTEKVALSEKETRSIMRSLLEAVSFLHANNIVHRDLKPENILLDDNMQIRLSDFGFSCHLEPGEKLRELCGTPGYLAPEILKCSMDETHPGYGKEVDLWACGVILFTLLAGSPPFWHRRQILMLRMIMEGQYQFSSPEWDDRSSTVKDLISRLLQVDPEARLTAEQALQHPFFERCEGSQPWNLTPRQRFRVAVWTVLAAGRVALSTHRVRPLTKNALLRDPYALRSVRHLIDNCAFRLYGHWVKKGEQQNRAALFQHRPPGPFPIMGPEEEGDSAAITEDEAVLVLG

Structure (SMILES): COc1ccc2c(c1)[C@]1(C[C@H]1c1ccc3c(/C=C/c4ccc(CN5C[C@@H](C)O[C@@H](C)C5)cc4)n[nH]c3c1)C(=O)N2 [CFI-400945]
- % Inhibition Average [1]: 0%
- % Inhibition Duplicate #1 [1]: -1%
- % Inhibition Duplicate #2 [1]: 1%
- % Inhibition [2]: 1%
- % Inhibition Average [3]: 5%
- % Inhibition Duplicate #1 [3]: 6%
- % Inhibition Duplicate #2 [3]: 5%
- % Inhibition Average [4]: 4%
- % Inhibition Duplicate #1 [4]: 4%
- % Inhibition Duplicate #2 [4]: 4%
- % Inhibition [5]: 3%
- % Inhibition [6]: 3% and 2%
- % Inhibition Average [7]: 17%
- % Inhibition Duplicate #1 [7]: 18%
- % Inhibition Duplicate #2 [7]: 16%
- % Inhibition [8]: 0% and -1%
- % Inhibition [9]: -7% and -1%
- % Inhibition [10]: 5%
- % Inhibition ([11]; AMPK (A2/B1/G2)): 27% and 22%
- % Inhibition ([11]; AMPK (A2/B1/G3)): 9% and 15%
- % Inhibition ([11]; AMPK (A2/B2/G3)): 9% and 10%
- % Inhibition ([11]; AMPK A2/B1/G1): 5% and 6%
- % Inhibition [12]: 8% and 7%
- % Inhibition Average [13]: 12%
- % Inhibition Duplicate #1 [13]: 10%
- % Inhibition Duplicate #2 [13]: 14%
- % Inhibition Average [14]: 2%
- % Inhibition Duplicate #1 [14]: 1%
- % Inhibition Duplicate #2 [14]: 2%
- % Inhibition [15]: 2% and 3%
- % Inhibition [16]: 10% and 9%
- % Inhibition Average [17]: 17%
- % Inhibition Duplicate #1 [17]: 16%
- % Inhibition Duplicate #2 [17]: 18%
- % Inhibition [18]: 52% and 54%
- % Inhibition Average [19]: 0%
- % Inhibition Duplicate #1 [19]: 0%
- % Inhibition Duplicate #2 [19]: 0%
- % Inhibition [20]: 8% and 9%
- % Inhibition [21]: 2% and 3%
- % Inhibition [22]: 3% and 2%
- % Inhibition [23]: 9% and 13%
- % Inhibition [24]: 7%
- % Inhibition [25]: 7% and 2%
